Test results reported in patent US10123960B2, “Methods for treating of skin conditions with retinoid double conjugate compounds” (US COSMECEUTECHS LLC, priority 2013, dated 2018).
“Also recorded” adds a separate entry of the source.

System: upper outer arm or back of each subject
Test: Maximization assay (human patch test: induction, rest and challenge phases)
Type: in vivo
Parameters: key to Maximization Testing Results: 72-Hour Grading / Maximization Testing Results: 48-Hour Grading: 0=not sensitized; 1=mild sensitization (viz. erythema and a little edema); 2=moderate sensitization (erythema with infiltration, raised, spreading beyond the borders of the patch, with or without vesiculation); 3=strong sensitization (large vesicula-bullous reaction)
Details: for Maximization Testing Results: 48-Hour Grading: 48 hours after challenge patch; for Maximization Testing Results: 72-Hour Grading: 72 hours after challenge patch
Experimental: A group of 26 subjects were tested to compare the activity of lactic acid retinoate (single conjugate) with ethyl lactate retinoate (double conjugate). As a general protocol, a patch (Webril cotton with 0.05 ml of a 5.0% aqueous solution) was applied to the upper outer arm or back of each subject. The entire test was composed of (1) an induction phase (2) a rest phase and (3) a challenge phase.
The scoring scale was as follows: • 0=not sensitized; • 1=mild sensitization (viz. erythema and a little edema); • 2=moderate sensitization (erythema with infiltration, raised, spreading beyond the borders of the patch, with or without vesiculation); and • 3=strong sensitization (large vesicula-bullous reaction).

[1] = Subject Number 26 (one volunteer)

Row | SMILES | share of the sample population with a delayed skin irritation reaction presumptive of contact allergy (25 panelists completed) [%] | Maximization Testing Results: 48-Hour Grading (Subject Number 01-24) | Maximization Testing Results: 72-Hour Grading (Subject Number 01-24) | Maximization Testing Results: 48-Hour Grading [1] | Maximization Testing Results: 72-Hour Grading [1] | adverse or unexpected reactions in the panelists (induction phase) | skin irritation at the induction patch (leading to method deviation) (induction phase) | share of the sample population with any skin irritation or allergic reactions (26 subjects) [%] | instances of contact allergy (48 or 72 hours after application of the challenge patches) | Maximization Testing Results: 48-Hour Grading (Subject Number 01-26) | Maximization Testing Results: 72-Hour Grading (Subject Number 01-26)
1 | CC1=C(/C=C/C(C)=C/C=C/C(C)=C/C(=O)OC(C)C(=O)O)C(C)(C)CCC1 (centres unmarked) [lactyl retinoate, 2-(((2E,4E,6E,8E)-3,7-dimethyl-9-(2,6,6-trimethylcyclohex-1-en-1-yl)nona-2,4,6,8-tetraenoyl)oxy)propanoic acid] | 4 | Subject Number: 01-24, 48-Hour Grading: 0 | Subject Number: 01-24, 72-Hour Grading: 0 | Subject Number: 26, 48-Hour Grading: 1 | persisted at 72 hours (score 2); also recorded: Subject Number: 26, 72-Hour Grading: 2 | No adverse or unexpected reactions were | many subjects had skin irritation sufficient enough to change protocol application |  |  |  | 
2 | CCOC(=O)[C@@H](C)OC(=O)/C=C(C)/C=C/C=C(C)/C=C/C1=C(C)CCCC1(C)C [ethyl lactate retinoate] |  |  |  |  |  |  |  | 0 | No instances of contact allergy were recorded | Subject Number: 01-26, 48-Hour Grading: 0 | Subject Number: 01-26, 72-Hour Grading: 0
